Experimental data taken from patent US10363239B2, “Method for inhibiting growth of cancer cells” (Pain Therapeutics, Inc., priority 2013, dated 2019).
Read-outs that look alike come from different tables or passages of the source.

Assays:
[1] = molecular target: FLNA pentapeptide of SEQ ID NO: 1 (Bn-VAKGL) (Homo sapiens, UniProt P21333); assay: FITC-NLX-based FLNA screening assay (inhibition of FITC-naloxone binding to Bn-VAKGL on streptavidin plates); settings: 10 nM FITC-NLX
[2] = test system: mu opiate receptor (MOR); assay: MOR agonist activity using [35S]GTPγS binding assay in striatal membranes; format: biochemical; settings: for MOR agonist activity ([35S]GTPγS binding), FLNA-Binding Compound as Agonist 1 μM + BFNA: 1 μM compound + 1 μM β-funaltrexamine
Summary of the method: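 Striatal membranes (200 μg) were preincubated 5 min at 30 °C in HEPES pH 7.5 with 100 mM NaCl, 1 mM MgCl2 and 0.5 nM [35S]GTPγS, then 5 min more with 0.1–10 μM compound. Gαo was immunoprecipitated and bound radioactivity counted by scintillation.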

[3] = read-out: Percent Binding Inhibition, FLNA-binding compound 0.01 μM
[4] = read-out: Percent Binding Inhibition, FLNA-binding compound 0.1 μM
[5] = read-out: Percent Binding Inhibition, FLNA-binding compound 1 μM
[6] = Series C-1, 0.1 μM compound, relative to DAMGO
[7] = Series C-1, 0.1 μM compound, [35S]GTPγS binding to Gαo, striatal membranes
[8] = Series C-1, 1 μM compound + 1 μM β-FNA
[9] = Series C-1, 1 μM compound + β-FNA, relative to DAMGO + BFNA
[10] = Series C-1, 1 μM compound, relative to DAMGO
[11] = Series C-1, 1 μM compound, [35S]GTPγS binding to Gαo, striatal membranes
[12] = Series B, 0.1 μM compound, relative to DAMGO
[13] = Series B, 0.1 μM compound, [35S]GTPγS binding to Gαo, striatal membranes
[14] = Series B, 1 μM compound + 1 μM β-FNA
[15] = Series B, 1 μM compound + β-FNA, relative to DAMGO + BFNA
[16] = Series B, 1 μM compound, relative to DAMGO
[17] = Series B, 1 μM compound, [35S]GTPγS binding to Gαo, striatal membranes
[18] = 0.1 μM compound relative to DAMGO
[19] = 1 μM compound + BFNA relative to DAMGO + BFNA
[20] = 1 μM compound relative to DAMGO

SMILES | inhibition at 0.01 µM [1, 3] [%] | inhibition at 0.1 µM [1, 4] [%] | inhibition at 1 µM [1, 5] [%] | % DAMGO (0.1 μM) [2, 6] [%] | Concentration of FLNA-Binding Compound as Agonist 0.1 μM [2, 7] [%] | Concentration of FLNA-Binding Compound as Agonist 1 μM + BFNA [2, 8] [%] | % DAMGO + BFNA [2, 9] [%] | % DAMGO (1 μM) [2, 10] [%] | Concentration of FLNA-Binding Compound as Agonist 1 μM [2, 11] [%] | % DAMGO (0.1 μM) [2, 12] [%] | MOR agonist activity, percent [35S]GTPγS binding at the stated compound concentration [2, 13] [%] | MOR agonist activity, percent [35S]GTPγS binding at the stated compound concentration [2, 14] [%] | % DAMGO + BFNA [2, 15] [%] | % DAMGO (1 μM) [2, 16] [%] | MOR agonist activity, percent [35S]GTPγS binding at the stated compound concentration [2, 17] [%] | also measured
N#Cc1ccccc1S(=O)(=O)N1CCC2(CC1)OCCN2S(=O)(=O)c1ccccc1C#N [Compound C0004] | 37.6 | 42.3 | 44.7 | 72.1 | 122.0 | 65.8 | 99.7 | 85.4 | 228.4 |  |  |  |  |  |  | 
CCc1ccc(S(=O)(=O)N2CCOC23CCN(CC2CC2)CC3)cc1 [Compound C0135M] | 53.9 | 55.1 | 62.3 |  |  |  |  |  |  |  |  |  |  |  |  | % DAMGO (0.1 μM) ([2]; Series C-2, 0.1 μM compound, relative to DAMGO): 85.3%; MOR agonist activity, percent [35S]GTPγS binding at the stated compound concentration ([2]; Series C-2, 0.1 μM compound, [35S]GTPγS binding to Gαo, striatal membranes): 161.3%; MOR agonist activity, percent [35S]GTPγS binding at the stated compound concentration ([2]; Series C-2, 1 μM compound + 1 μM β-FNA): 113.3%; % DAMGO + BFNA ([2]; Series C-2, 1 μM compound + β-FNA, relative to DAMGO + BFNA): 233.6%; % DAMGO (1 μM) ([2]; Series C-2, 1 μM compound, relative to DAMGO): 124.9%; MOR agonist activity, percent [35S]GTPγS binding at the stated compound concentration ([2]; Series C-2, 1 μM compound, [35S]GTPγS binding to Gαo, striatal membranes): 310.1%
COc1c2c(cc3c1C(CC(=O)c1ccc(O)c(C)c1)[N+](C)(C)CC3)OCO2 (stereo not drawn) [Compound B0002] | 40.2 | 46.4 | 55 |  |  |  |  |  |  | 100.0 | 165.7 | 101.4 | 156.0 | 81.1 | 219.0 | 
COc1c2c(cc3c1C(CC(=O)CCc1ccc(Cl)cc1)[N+](C)(C)CC3)OCO2 (stereo not drawn) [Compound B0017] | 28.3 | 36.6 | 44.6 |  |  |  |  |  |  | 58.9 | 99.6 | 49.6 | 75.2 | 45.6 | 122.0 | 
CC1CCC(C(C)C)C(OCC(O)CN2CCCCC2C)C1 (stereo not drawn) [Compound A0007] | 39.2 | 46.2 | 52.9 |  |  |  |  |  |  |  |  |  |  |  |  | MOR agonist activity ([35S]GTPγS binding), FLNA-Binding Compound as Agonist 0.1 μM ([2]; 0.1 μM compound): 102.0%; % DAMGO (0.1 μM) [2, 18]: 68.3%; MOR agonist activity ([35S]GTPγS binding), FLNA-Binding Compound as Agonist 1 μM ([2]; 1 μM compound): 221.9%; MOR agonist activity ([35S]GTPγS binding), FLNA-Binding Compound as Agonist 1 μM + BFNA [2]: 40.4%; % DAMGO + BFNA [2, 19]: 152.5%; % DAMGO (1 μM) [2, 20]: 96.4%
O=S(=O)(c1cccs1)N1CCC2(CC1)OCCN2S(=O)(=O)c1cccs1 [Compound C0141M] | 33.1 | 39 | 46.9 | 109.9 | 161.5 | 47.9 | 121.9 | 105.8 | 213.9 |  |  |  |  |  |  | 
COc1ccc(NC(=O)N2CCC3(CC2)OCCN3C(=O)Nc2ccc(OC)cc2)cc1 [Compound C0151M] | 48.3 | 51.7 | 58.7 | 201.6 | 346.8 | 212.8 | 233.1 | 122.0 | 397.6 |  |  |  |  |  |  | 
CC1CCC(C(C)C)C(OCC(O)CN2CCSC2)C1 (stereo not drawn) [Compound A0002] |  |  |  |  |  |  |  |  |  |  |  |  |  |  |  | inhibition at 0.01 µM ([1]; FLNA-binding compound 0.01 μM, read-out: Percent Binding Inhibition): 38.7%; inhibition at 0.1 µM ([1]; FLNA-binding compound 0.1 μM, read-out: Percent Binding Inhibition): 43.7%; inhibition at 1 µM ([1]; FLNA-binding compound 1 μM, read-out: Percent Binding Inhibition): 49.9%; MOR agonist activity ([35S]GTPγS binding), FLNA-Binding Compound as Agonist 0.1 μM ([2]; 0.1 μM compound): 155.6%; % DAMGO (0.1 μM) [2, 18]: 104.1%; MOR agonist activity ([35S]GTPγS binding), FLNA-Binding Compound as Agonist 1 μM ([2]; 1 μM compound): 199.4%; MOR agonist activity ([35S]GTPγS binding), FLNA-Binding Compound as Agonist 1 μM + BFNA [2]: 6.5%; % DAMGO + BFNA [2, 19]: 24.5%; % DAMGO (1 μM) [2, 20]: 86.6%
COc1ccc(CC(=O)CC2c3c(cc4c(c3OC)OCO4)CC[N+]2(C)C)c(OC)c1 (stereo not drawn) [Compound B0029] | 33.4 | 42.9 | 50.2 |  |  |  |  |  |  | 89.4 | 171.9 | 17.6 | 40.1 | 77.0 | 210.3 | 
